Measurements from patent US5221682A, “Heteroarylamino- and heteroaryloxypyridinamines and related compounds” (Hoechst-Roussel Pharmaceuticals Incorporated, priority 1991, dated 1993).

How the values were obtained:
[1] = tested on: mouse ear edema induced by topical application of arachidonic acid; experiment: Arachidonic Acid-Induced Ear Edema (AAEE); format: in vivo, Female Swiss Webster mice; details: for AAEE: 1 mg (1.0 mg/ear)
Protocol: Arachidonic Acid-Induced Ear Edema (AAEE)
Female Swiss Webster mice topically received vehicle or test compound (1.0 mg/ear) on both ears (10 μl on outer and inner ears). After 30 minutes, the right ear of all groups received arachidonic acid (4 mg/ear) and the left ear received vehicle alone. […] See Young, J. M. et al., Invest. Dermatol., 80, (1983), pp 48-52.

[2] = tested on: ear edema induced by topical application of TPA (phorbol 12-myristate acetate); experiment: TPA-Induced Ear Edema (TPAEE); details: for change in vivo at 10 µg/ear: Mus musculus, 5 h, read-out: TPAEE
Protocol: Female Swiss Webster mice topically received TPA (10 μg/ear) on the right ear and vehicle on the left ear. The test compound (10 μg/ear) was applied to both ears. After five hours, the animals were sacrificed and an ear punch (4 mm) was taken from each ear. The difference in right and left ear punch weights for each animal was determined to assess activity.

porcine pancreatic PLA2 = target: T1, porcine pancreatic PLA2 (Sus scrofa, UniProt P00592); experiment: In Vitro Phospholipase A2 Assay (PLA2); format: biochemical; details: 0.01M; read-out: PLA2 (difference vs. control)
T1 construct: from tissue; host or cells: porcine pancreas
T1 sequence (P00592 23-146): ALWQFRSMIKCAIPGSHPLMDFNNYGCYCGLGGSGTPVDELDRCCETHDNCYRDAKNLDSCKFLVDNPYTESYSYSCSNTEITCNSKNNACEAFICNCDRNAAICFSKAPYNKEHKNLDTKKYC
Protocol: In Vitro Phospholipase A2 Assay (PLA2)
The ability of a compound to modulate PLA2 activity (cleavage of ^14 C-dipalmitoyl phosphotidylcholine at the 2-position to ^14 C-palmitic acid) was quantitated in this assay. The reaction mixture contained Tris buffer (25 mM), pH 8.0, calcium chloride (2.0 mM), bovine serum albumin (0.5 mg), dipalmitoyl phosphotidylcholine (8×10^-5M), (^14 C-palmitoyl)dipalmitoyl phosphotidylcholine (6×10^3cpm), porcine pancreatic PLA2 (3.2 units) and the test compound. The reaction was run at 37° C. in a shaking incubator. The reaction was quenched and an internal standard was added in order to determine sample recovery. The samples were loaded onto C18 columns, eluted with ethanol, and the radioactivity was then measured. […] See Feyen, J. H. M., et al., Journal of Chromatography 259 (1983), pp. 338-340.

[3] = tested on: naja naja (snake venom) phospholipase A2 -induced paw edema; experiment: Phospholipase A2-induced Paw Edema (PIPE); format: in vivo, male Wistar rats; details: for PIPE, difference in edema vs. control: 0.1M, rat, subplantar injection, two hours
Protocol: Phospholipase A2 -induced Paw Edema (PIPE)
The ability of compounds to prevent naja naja (snake venom) phospholipase A2 -induced paw edema in male Wistar rats (100-125 g) was measured. PLA2 (3 units/paw) alone or with 0.1M of the test compound was injected in the subplantar region of the rat left hindpaw. Immediately subsequent to the injection and at two hours post administration the paw was immersed in a mercury bath, and paw displacement was measured on a recorder via a transducer. […] See Giessler, A. J. et al., Agents and Actions, Vol. 10, Trends in Inflammation Research (1981), p. 195.

epidermal DNA synthesis = experiment: Epidermal DNA Synthesis (in vivo DNA); design: species or system HRS/J hairless mice; details: topical, hairless mice; for in vivo DNA: 2.5 mg
Protocol: Epidermal DNA Synthesis (in vivo DNA)
The influence of compounds on the proliferation of skin was assessed by determining inhibition or stimulation of DNA synthesis. HRS/J hairless mice received topical application of a compound or vehicle alone on the dorsal aspect. After 24 hours, ^3 H-thymidine (25 μCi) was administered by intraperitonal injection. After an additional hour, animals were sacrificed and the dorsal skin was removed. The epidermal layer was peeled from the dermis by heat separation. Unincorporated ^3 H-thymidine was removed by washing successively with trichloroacetic acid and ethanol. Samples were centrifuged at 2,000 rpm and supernatants discarded. The epidermal sheets were then extracted with warm trichloroacetic acid and the supernatants analyzed for ^3 H-thymidine incorporation by scintillation counting and total DNA by a standard colorimetric assay. […] See Lowe, N. J., et al., Arch. Dermatol., 117 (1981), pp. 394-8; and Burton, K., Biochem. J. 62 (1956), pp. 315-22.

[4] = tested on: cultured human epidermal keratinocytes; experiment: Culture Human Keratinocyte DNA Synthesis (in vitro DNA); format: cell-based
Protocol: Culture Human Keratinocyte DNA Synthesis (in vitro DNA)
The effect of a compound on the proliferation of cultured human epidermal keratinocytes was measured. After incubation with a test compound for 24 hours, the cultures were pulse-labelled for three hours with 5 μCi of ^3 H-thymidine. The cultures were extracted for DNA successively with trichloroacetic acid and ethanol, and thereafter dissolved with NaOH. The radioactive incorporation of ^3 H-thymidine into DNA was determined.

Compound | AAEE [1] [%] | change in vivo at 10 µg/ear [2] [%] | inhibition at 10000 µM (porcine pancreatic PLA2) [%] | PIPE, difference in edema vs. control [3] [%] | other results
CC(=O)N1CCc2cc(Nc3cnccc3N)ccc21 [1-Acetyl-N-(4-amino-3-pyridinyl)-2,3-dihydro-1H-indol-5-amine] | -36 | – | – | – | –
Cn1ccc2cc(Nc3c[n+]([O-])ccc3[N+](=O)[O-])ccc21 [1-Methyl-N-(4-nitro-3-pyridinyl)-1H-indol-5-amine, N^5-oxide] | – | -30 | 66 | -41 | –
Nc1ccncc1Oc1ccc2[nH]ccc2c1 [3-[(1H-Indol-5-yl)-oxy]-4-pyridinamine, 3-[(1H-Indol-5-yl)oxy]-4-pyridinamine] | -50 | -42 | 34 | -62 | in vivo DNA (epidermal DNA synthesis): -37%
Nc1cnccc1Oc1ccc2[nH]ccc2c1 [4-[(1H-Indol-5-yl)-oxy]-3-pyridinamine, 4-[(1H-Indol-5-yl)oxy]-3-pyridinamine] | – | – | – | -52 | –
Nc1cnccc1Nc1ccc2[nH]ccc2c1 [N-(3-Amino-4-pyridinyl)-1H-indol-5-amine] | -37 | – | 82 | – | –
O=[N+]([O-])c1cnccc1Nc1ccc2[nH]ccc2c1 [N-(3-Nitro-4-pyridinyl)-1H-indol-5-amine] | – | – | 36 | – | –
Cn1ccc2cc(Nc3cnccc3N)ccc21 [N-(4-Amino-3-pyridinyl)-1-methyl-1H-indol-5-amine] | – | – | 62 | -42 | –
Nc1ccncc1Nc1ccc2cn[nH]c2c1 [N-(4-Amino-3-pyridinyl)-1H-indazol-6-amine] | -35 | – | 57 | – | –
Nc1ccncc1Nc1ccc2[nH]ccc2c1 [N-(4-Amino-3-pyridinyl)-1H-indol-5-amine] | -41 | -85 | 87 | -67 | inhibition at 50 µM ([4]; 50 μM, 24 hours): 81%; in vivo DNA (epidermal DNA synthesis): -27%
Nc1cc[n+]([O-])cc1Nc1cccc2cc[nH]c12 [N-(4-Amino-3-pyridinyl)-1H-indol-7-amine, N^7-oxide] | – | -38 | – | -45 | –
O=[N+]([O-])c1cc[n+]([O-])cc1Nc1ccc2[nH]ncc2c1 [N-(4-Nitro-3-pyridinyl)-1H-indazol-5-amine, N^5-oxide] | – | -78 | – | – | –
O=[N+]([O-])c1cc[n+]([O-])cc1Nc1ccc2cn[nH]c2c1 [N-(4-Nitro-3-pyridinyl)-1H-indazol-6-amine, N^6-oxide] | – | – | 83 | – | –
O=[N+]([O-])c1cc[n+]([O-])cc1Nc1ccc2[nH]ccc2c1 [N-(4-Nitro-3-pyridinyl)-1H-indol-5-amine, N^5-oxide] | – | – | 71 | – | –
O=[N+]([O-])c1cc[n+]([O-])cc1Nc1cccc2cc[nH]c12 [N-(4-Nitro-3-pyridinyl)-1H-indol-7-amine, N^7-oxide] | – | -40 | – | – | –
O=[N+]([O-])c1cc[n+]([O-])cc1NC1CCc2ccccc21 (stereo not drawn) [N-(Indan-1-yl)-4-nitro-3-pyridinamine-1-oxide] | – | -65 | – | – | –
O=[N+]([O-])c1cc[n+]([O-])cc1Nc1ccc2c(c1)CCC2 [N-(Indan-5-yl)-4-nitro-3-pyridinamine-1-oxide] | -44 | -48 | – | – | –
Nc1ccncc1Nc1ccc2c(c1)CCC2 [N^3-(Indan-5-yl)-3,4-pyridinediamine] | -49 | -75 | – | – | –
C[C@]12CCC(=O)C=C1CC[C@@H]1[C@@H]2[C@@H](O)C[C@@]2(C)[C@H]1CC[C@]2(O)C(=O)CO [hydrocortisone, reference compound] | – | – | – | – | ED50 (Standard) ([2]; TPAEE standard, mouse): 47 μg/ear; ED50 (Standard) ([3]; PIPE standard, rat paw): 0.46 M
COc1ccc2c(c1)c(CC(=O)O)c(C)n2C(=O)c1ccc(Cl)cc1 [indomethacin, reference compound] | – | – | – | – | IC50 ([4]; read-out: IC50 (Standard)): 38 µM; ED50 (Standard) (epidermal DNA synthesis; in vivo DNA standard): 1.75 mg/animal; ED50 (Standard) ([1]; AAEE standard): 1.5 mg/ear
